# Measured values published in the supplement of paper PMC10307832.
# Tests used:
# Assay in all cases: relative viability (nuclei count vs DMSO), 5 days (fraction); higher = more cells survive
# Imatinib + Palbociclib = compound: Cc1ccc(NC(=O)c2ccc(CN3CCN(C)CC3)cc2)cc1Nc1nccc(-c2cccnc2)n1 [Imatinib] + CC(=O)c1c(C)c2cnc(Nc3ccc(N4CCNCC4)cn3)nc2n(C2CCCC2)c1=O [Palbociclib] (partner 0.5 µM)
# In short: (§1)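 The day after seeding in 1536-well plates, lung cancer cell lines were treated by pin tool with a single drug, or with a fixed anchor-drug dose together with five library-drug doses (not always all listed) in √10 steps. After 5 days, a combined fix-and-stain solution (final 0.05% Triton X-100, 1% formaldehyde, 1 ug/ml Hoechst) was added. Nuclei counted on 4× images gave relative viability as treated counts over vehicle counts, reported as the median of duplicate plates.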
# Imatinib + Navitoclax = compound: Cc1ccc(NC(=O)c2ccc(CN3CCN(C)CC3)cc2)cc1Nc1nccc(-c2cccnc2)n1 [Imatinib] + CC1(C)CCC(c2ccc(Cl)cc2)=C(CN2CCN(c3ccc(C(=O)NS(=O)(=O)c4ccc(N[C@H](CCN5CCOCC5)CSc5ccccc5)c(S(=O)(=O)C(F)(F)F)c4)cc3)CC2)C1 [Navitoclax] (partner 0.5 µM)
# In short: as §1
# Imatinib + Linsitinib = compound: Cc1ccc(NC(=O)c2ccc(CN3CCN(C)CC3)cc2)cc1Nc1nccc(-c2cccnc2)n1 [Imatinib] + C[C@]1(O)C[C@@H](c2nc(-c3ccc4ccc(-c5ccccc5)nc4c3)c3c(N)nccn32)C1 [Linsitinib] (partner 1 µM)
# In short: as §1
# Imatinib + Tozasertib = compound: Cc1ccc(NC(=O)c2ccc(CN3CCN(C)CC3)cc2)cc1Nc1nccc(-c2cccnc2)n1 [Imatinib] + Cc1cc(Nc2cc(N3CCN(C)CC3)nc(Sc3ccc(NC(=O)C4CC4)cc3)n2)n[nH]1 [Tozasertib] (partner 0.1 µM)
# In short: as §1
Cell Line,relative viability (Imatinib + Palbociclib; first compound 0.02 µM),relative viability (Imatinib + Palbociclib; first compound 0.06325 µM),relative viability (Imatinib + Palbociclib; first compound 0.2 µM),relative viability (Imatinib + Palbociclib; first compound 0.6325 µM),relative viability (Imatinib + Palbociclib; first compound 2 µM),relative viability (Imatinib + Navitoclax; first compound 0.02 µM),relative viability (Imatinib + Navitoclax; first compound 0.2 µM),relative viability (Imatinib + Navitoclax; first compound 0.6325 µM),relative viability (Imatinib + Navitoclax; first compound 2 µM),relative viability (Imatinib + Linsitinib; first compound 0.02 µM),relative viability (Imatinib + Linsitinib; first compound 0.2 µM),relative viability (Imatinib + Linsitinib; first compound 0.6325 µM),relative viability (Imatinib + Linsitinib; first compound 2 µM),relative viability (Imatinib + Tozasertib; first compound 0.02 µM),relative viability (Imatinib + Tozasertib; first compound 0.06325 µM),relative viability (Imatinib + Tozasertib; first compound 0.2 µM),relative viability (Imatinib + Tozasertib; first compound 0.6325 µM),relative viability (Imatinib + Tozasertib; first compound 2 µM),relative viability (Imatinib + Navitoclax; first compound 0.06325 µM),relative viability (Imatinib + Linsitinib; first compound 0.06325 µM)
NCI-H1944,0.347,0.306,0.373,0.316,0.42,1.03,1.05,1.07,1.08,1.21,1.12,1.07,1.18,0.259,0.401,0.253,0.236,0.262,,
NCI-H1975,0.662,0.49,0.566,0.631,0.563,1.11,1.22,1.03,1.13,0.977,1.07,0.843,0.958,0.976,0.774,0.493,0.255,0.188,1.27,0.965
NCI-H1993,0.684,0.677,0.674,0.723,0.699,,0.953,0.851,0.776,,0.747,0.72,0.707,0.636,0.632,0.591,0.581,0.588,1,0.73
NCI-H2009,0.202,0.157,0.194,0.2,0.203,1.22,1.23,1.17,1.11,1.19,1.21,1.24,1.24,0.832,,0.765,0.71,0.711,1.22,1.32
NCI-H2023,0.537,0.494,0.387,,0.345,1.08,1.12,0.958,0.898,0.778,0.796,0.682,0.719,0.461,0.319,0.254,0.259,0.18,1.23,0.871
NCI-H2085,0.447,0.45,0.506,0.481,0.47,1.16,1.33,1.13,,0.93,1.11,0.95,0.825,0.823,0.795,0.877,0.553,0.489,1.07,0.823
NCI-H2087,0.192,,0.188,0.243,,1.07,1.21,1.11,0.956,1.09,1.07,0.991,0.85,0.247,,0.206,0.202,0.183,1.03,1
NCI-H2126,0.375,0.352,0.37,0.368,0.321,0.883,0.865,0.851,0.824,0.724,0.728,0.742,0.758,0.921,,0.872,0.352,0.739,,
NCI-H2228,1.06,0.73,0.664,0.916,0.697,0.982,1.11,0.922,0.955,0.742,0.678,0.482,0.638,0.196,,0.205,0.186,0.203,0.891,0.555
